Experimental data taken from patent EP0528615A1, “Cribrostatins 1 and 2” (ARIZONA BOARD OF REGENTS, priority 1991, dated 1993).
≈ marks a conversion by molar mass, not a printed value.

Experiments:
[1] = tested on: P388 murine lymphocytic leukemia; assay: in vitro PS leukemia cell growth inhibition (NCI P388 protocol); type: cell-based; details: Mus musculus, isolated pure compounds, read-out: PS ED₅₀
Text: In early research devoted to the first systematic investigation of marine animals as new sources of potential anticancer drugs the phylum Porifera rapidly became of increasing importance. Subsequent detection of antineoplastic activity in some of these sponge species led to the isolation of such cell growth inhibitory compounds, as macrocyclic lactones, pyrroles, peptides, and proteins. Meanwhile the isolation of heterocyclic marine sponge constituents such as pyrroles, imidazoles, oxazoles, indoles, pyridines, quinolizidines, pteridines, acridines, other nitrogen systems and quinones has been rapidly accelerating. So far ten isoquinolinequinones have been isolated from blue species of the sponge genera Reniera and Xestospongia. In 1986 an exploratory survey of marine Porifera off remote islands in the Republic of the Maldives was conducted which located a deep blue colored specimen of Cribrochalina sp. (Haplosclerida order) that afforded an orange ethanol extract. The encrusting sponge was found in areas of strong (and dangerous) currents to -45m in the South side of East reef passages and yielded and ethanol extract that provided 40% life extension (at mg/kg) against the U.S. National Cancer Institute's in vivo murine P388 lymphocytic leukemia (PS system). […]

[2] = tested on: NCI human cancer cell lines; assay: NCI human cancer cell lines, cytostatic activity (general statement); type: cell-based
Text: (§1) Presently the Cribrochalina sp. constituents are undergoing detailed antineoplastic evaluation. […] (See: Boyd, status of the NCI preclinical antitumor drug discovery screen: implications for selection of new agents for clinical trial. In: DeVita et al., Principles and Practices of Oncology, update series, Vol. 3, No. 10, Lippincott, Philadelphia 1989, pp1-12; and Boyd et al., Data display and analysis strategies from NCI disease oriented in vitro antitumor drug screen. In:Valeriote et al., Antitumor Drug Discovery and Development, Kluwer Academic Press, Amsterdam, 1990.) The human tumor cell line panel currently used for these studies consists of a diverse array of 60 different cell lines representing eight major cancer subtypes.

[3] = tested on: melanoma cancer line (LOX-1MCI; MALME-3M; M14; M19-MEL; SK-MEL-2; KS-MEL-28; SK-MEL-5; UACC_257; UACC-62); type: cell-based, human
Text: as §1

[4] = tested on: non-small lung cancer (A549/ATCC, HOP-18, and NCI-H460); assay: NCI panel cell lines, non-small lung cancer; type: cell-based, human; details: non-small lung cancer (A549/ATCC, HOP-18, NCI-H460)
Text: as §1

colon cancer (CoLo 205) = assay: NCI panel cell lines, colon cancer; type: cell-based, human
Text: as §1

SMILES: CCOC1=C(C)C(=O)c2cc(=O)n(C)cc2C1=O [Cribrostatin 2]
- IC50 [1]: 2.73 mg/L (≈ 11 µM)
- cytostatic properties [2]: cytostatic properties

SMILES: CC1=C(N)C(=O)c2c(ccnc2C)C1=O [Cribrostatin 1]
- IC50 [1]: 1.58 mg/L (≈ 7.81 µM)
- LC₅₀ [3]: 10⁻⁵ - 10⁻⁶
- sensitivity relative to panel mean ([3]; all nine melanoma lines of the 60 cell line panel): sensitivity greater than the panel mean
- result in NCI panel cell line ([3]; melanoma (MALME-3M, M14, M19-MEL, SK-MEL-2, SK-MEL-28, UACC-257, UACC-62)): especially favorable results
- result in NCI panel cell line [4]: especially favorable results
- result in NCI panel cell line (colon cancer (CoLo 205)): especially favorable results
- cytostatic properties [2]: cytostatic properties
